Results as given in patent US11384071B2, “Inhibitors of mechanotransduction to treat pain and modulate touch perception” (Max-Delbrück-Centrum für Molekulare Medizin in der …, priority 2016, dated 2022).

Tests used:
STOML1 = target: T1, STOML1 (Mus musculus, UniProt Q8CI66); experiment: BiFC assay of STOML1 self-association; format: cell-based
T1 construct: expressed in transfected cells; host or cells: HEK293 (general statement on the BiFC assay)
Procedure: FIG. 8: Effects of STOML3 modulating molecules on other Stomatin-domain proteins. (a) BiFC signal development observed when cells were transfected with Stomatin-VC/-VN, STOML1-VC/-VN, STOML2-VC/-VN, STOML3-VC/-VN or Podocin-VC/-VN expression constructs respectively. […] (b) OB-1 was tested at two different concentrations (2 μm and 20 μm) using the BiFC assay where wild type STOML3 was used as both bait and prey.
In mammals STOML3 belongs to a family of five structurally conserved membrane proteins, including stomatin, STOML1, STOML2, and podocin^10,12-16, all of which self-associate via their stomatin-domain (FIG. 8a)^10. Self-association of stomatin-domain proteins can be monitored in HEK293 cells using Bimolecular Fluorescence Complementation (BiFC) whereby N- and C-terminal halves of the YFP molecule are tagged to the prey and bait protein STOML3^2,17 (FIG. 1a). Irreversible association of the YFP fragments produces fluorescence that increases linearly over time (FIG. 1b).

[1] = system: RA-currents in mechanoreceptor sensory neurons; experiment: Cell soma indentation, RA-mechanosensitive currents in sensory neurons; format: cell-based, mouse
Procedure: (§1) Whole-cell, patch-clamp recordings were conducted as previously described 5-7, using patch pipettes with a tip resistance of 3-6 MΩ, filled with a solution of: 110 mM KCl, 10 mM NaCl, 1 mM MgCl2, 1 mM EGTA and 10 mM HEPES, adjusted to pH 7.3 with KOH. (For experiments on DRG neurons 10 mM QX-314 was added to the pipette to block voltage-gated sodium channels 8 Extracellular solutions contained 140 mM NaCl, 4 mM KCl, 2 mM CaCl2, 1 mM MgCl2, 4 mM glucose, 10 mM HEPES, adjusted to pH 7.4 with NaOH. A Zeiss 200 inverted microscope and an EPC-10 amplifier in combination with Patchmaster software was used, data was analyzed using Fitmaster software (HEKA Electronik GmbH, Germany). Pipette and membrane capacitance were compensated using the auto function of Patchmaster, series resistance was compensated by at least 60% to minimize voltage errors. Mechanical stimuli were applied using a polished glass probe driven by the MM3A micromanipulator (Kleindiek Nanotechnik, Germany). Mechanical stimuli were applied by either; indenting the cell soma or by culturing cells on elastomeric pillar arrays and applying the stimulus to the cell-substrate interface by deflecting an individual pilus.
We evaluated the effects of OB-1 and OB-2 on mechanosensitive currents in acutely cultured mouse sensory neurons. […]

[2] = system: Spared tibial nerve injury (SNI) mice; experiment: Spared nerve injury (SNI) model, paw withdrawal thresholds; format: in vivo, mouse; conditions: administration to the plantar skin
Text: Mice were allowed to habituate to the testing apparatus (acrylic chambers 10×10 cm in size, suspended above a wired mesh grid) one hour prior to behavioral testing. Only once the subject was at rest and not moving, calibrated von-Frey hair monofilaments (Aesthesio® set of 20 monofilaments, Ugo Basil) were applied to the plantar surface of the hind paw in order to deliver target forces from 0.008 grams to 4 grams increasing in an approximately logarithmic scale. A single stimulus indicated by a slight bending of the filament lasted for two seconds unless the mouse withdrew its paw. In order to measure mechanosensitivity the up-and-down method described by Chaplan^13 was adapted as follows: Testing began with a filament delivering a target force of 0.4 g, but filaments were applied three times. A positive response was noted if the subject withdrew the paw to all three filament applications, so that the successively smaller filament was presented next. […] Paw withdrawal thresholds were calculated as median of 23 to 30 determined turning points of the particular force stimuli applied to the subject.

[3] = system: mechanically gated currents in nociceptors; experiment: Pillar array analysis of mechanically gated currents in DRG nociceptors; format: cell-based, mouse; conditions: for amplitude of mechanically gated currents in nociceptors: stimulus magnitudes between 100 and 500 nm
Procedure: HEK-293 cells (passage numbers 4-20) were cultured in DMEM plus 10% fetal calf serum (FCS). Neuro2A (N2A) cells were cultured in DMEM/Opti-MEM media plus 10% FCS.—Sensory DRG neurons were isolated from 4 week old Mus musculus (C57Bl/6). Approximately 20 ganglia were collected from each mouse and individual cells were isolated by treating ganglia with […] collagenase IV for 30 min, followed by 1 ml of 0.05% trypsin, in PBS, for 5-20 min at 37° C. Enzyme-treated ganglia, in DMEM/F-12 media containing 10% Horse Serum (HS), were disrupted by gently passaging through a 20 G needle; cells were then collected by centrifugation (1000 rpm, 3 min), washed and finally re-suspended in DMEM/F-12, 10% HS media (at no point were neurotrophins added to the culture). Sensory neurons were then seeded on EHS-laminin coated substrate and cultured overnight. Experiments involving isolated sensory neurons were conducted within 24-36 hours of isolation of the cells.
as §1, with “Mechanical stimuli were applied by either; indenting the cell soma or by culturing cells on elastomeric pillar arrays and applying the stimulus to the cell-substrate interface by deflecting an individual pilus.” left out
Briefly, elastomeric pillar arrays of defined dimensions were cast in PDMS with an elasticity of 2 MPa. Cells cultured on these arrays were monitored using whole-cell patch-clamp whilst a glass probe was used to apply repeated deflections (of differing magnitudes) to an individual pilus directly beneath the cell. Images were obtained of the pilus before and after deflection and images were analyzed off-line to determine the exact deflection for each data point. […] Images were analyzed off-line using Igor software (WaveMetrics, USA). […] A power analysis was used to determine that moderate to strong effects between samples could be detected with a sample size >4. […] For quantitative analysis of mechanosensitivity we measured responses in the most sensitive sub-population of mechanoreceptors, previously defined as Typell mechanoreceptors (Poole et al., 2014).

[4] = system: 79 receptors and ion channels; experiment: Commercial in vitro pharmacology panel (cerep); format: binding; conditions: 20 μM, panel of 79 receptors and ion channels
Procedure: We next interrogated whether local application of OB-1 can ameliorate tactile-evoked pain behavior in neuropathic models. […] We decided to test this idea more directly by testing the effects of local OB-1 on the mechanical sensitivity of Stoml3^−/− mice with CCI. […] Off-target effects are an issue for any biologically active small molecule. We therefore tested the effects of 20 μM OB-1 in a commercially available in vitro pharmacology panel (www.cerep.fr) consisting of 79 receptors and ion channels.

T1 sequence (Q8CI66 whole entry): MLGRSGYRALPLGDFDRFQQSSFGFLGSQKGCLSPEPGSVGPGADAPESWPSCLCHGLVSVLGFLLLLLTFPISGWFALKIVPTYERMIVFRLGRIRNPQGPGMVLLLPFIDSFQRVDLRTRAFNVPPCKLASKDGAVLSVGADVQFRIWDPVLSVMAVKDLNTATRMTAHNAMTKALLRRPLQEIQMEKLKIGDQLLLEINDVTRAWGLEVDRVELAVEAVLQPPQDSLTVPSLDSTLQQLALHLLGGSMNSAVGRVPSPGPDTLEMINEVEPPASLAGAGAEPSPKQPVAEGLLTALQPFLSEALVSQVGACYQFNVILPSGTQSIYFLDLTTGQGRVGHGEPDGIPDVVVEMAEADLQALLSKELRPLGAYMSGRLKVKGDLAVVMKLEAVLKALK

SMILES	self-association of STOML1 (BiFC) (STOML1)	inactivation time constant (τ2) of mechanically-gated currents [1]	neurons displaying no mechanosensitive current ([1]; 12/21 neurons, control 21%)	allodynia [2]	amplitude of mechanically gated currents in nociceptors [3]	receptors with significant inhibition of specific ligand binding [4]	activation time constant for current activation τ1 ([3]; nociceptors)	latency for mechanically gated currents ([3]; nociceptors)
CCOC(=O)c1c(-c2ccccc2)oc2ccc(Oc3c([N+](=O)[O-])ncn3C)cc12 [OB-1, Ethyl 5-((1-methyl-4-nitro-1H-imidazol-5-yl)oxy)-2-phenylbenzofuran-3-carboxylate]	effective inhibitor	slowed	~60%	no reversal	significant reduction	6/79	–	–
Cc1ccnc(NC(=O)CSc2nnc3c4ccccc4n(Cc4ccccc4)c3n2)c1 [OB-2]	–	–	–	–	significant reduction	–	significantly slowed	significantly slowed
